The values that follow come from patent US20130040912A1, “PIPERAZINOTRIAZINES AS PI3K INHIBITORS FOR USE IN THE TREATMENT ANTIPROLIFERATIVE DISORDERS” (UNIVERSITY OF BASEL, priority 2010, published 2013).

For one test, the target named is PI3Kalpha (Homo sapiens, UniProt P42336). As to the kind of experiment: in vitro PI3Kalpha inhibition, Kinase Glo assay. It counts as biochemical. The settings on record: for remaining activity at 0.2 µM: Kinase Glo assay at 200 nM, % remaining activity, the smaller the value, the stronger the inhibition, read-out: In vitro PI3Kα, % remaining activity; for inhibitor activity against PI3K (in words): compared with ZSTK474 (4). As for the experimental part:
(§1) The inhibitor efficacy and the cell permeability of the compounds of the invention are measured by in cell Western inhibition assay on melanoma cell line A2058 and TSC2−/− MEFs cell line. Furthermore, in vitro PI3Kalpha inhibition is measured (Table 1).

A further test concerns melanoma cell line A2058. As to the kind of experiment: in cell Western inhibition assay on melanoma cell line A2058. The class given is cell-based. The settings on record: Homo sapiens, the smaller the value, the stronger the inhibition. On the procedure:
as §1

In the next test the test system is TSC2-/- MEFs cell line. Nature of the test: in cell Western inhibition assay on TSC2-/- MEFs cell line. It counts as cell-based. As to conditions: for activity at 1 µM: in cell Western, the smaller the value, the stronger the inhibition, read-out: TSC2-/- MEFs cell inhibition pS6, % remaining activity; for selectivity to mTOR (in words): compared with ZSTK474 (4). On the procedure: as §1

The next test concerns the target PI3Kgamma isoform (Homo sapiens, UniProt P48736). Nature of the test: fluorescence correlation spectroscopy binding to PI3Kgamma. The settings on record: binding leads to an increase in diffusion time. As for the experimental part: Fluorophore containing compound 13 can be used as a reference inhibitor by fluorescence correlation spectroscopy experiments in which the binding constants of novel inhibitors are determined. […] When the enzyme is saturated with compound 13, new possible ligands can be tested by observing the release of compound 13. This leads to a decrease in diffusion time.

Where [1] appears, read: read-out: A2058 cell inhibition pPKB/PKB, % remaining activity.
[2] abbreviates: read-out: A2058 cell inhibition pS6, % remaining activity.

The structures appear in SMILES notation. Read-outs that look alike come from different tables or passages of the source.

Sequence of PI3Kalpha (P42336 whole entry, species assumed): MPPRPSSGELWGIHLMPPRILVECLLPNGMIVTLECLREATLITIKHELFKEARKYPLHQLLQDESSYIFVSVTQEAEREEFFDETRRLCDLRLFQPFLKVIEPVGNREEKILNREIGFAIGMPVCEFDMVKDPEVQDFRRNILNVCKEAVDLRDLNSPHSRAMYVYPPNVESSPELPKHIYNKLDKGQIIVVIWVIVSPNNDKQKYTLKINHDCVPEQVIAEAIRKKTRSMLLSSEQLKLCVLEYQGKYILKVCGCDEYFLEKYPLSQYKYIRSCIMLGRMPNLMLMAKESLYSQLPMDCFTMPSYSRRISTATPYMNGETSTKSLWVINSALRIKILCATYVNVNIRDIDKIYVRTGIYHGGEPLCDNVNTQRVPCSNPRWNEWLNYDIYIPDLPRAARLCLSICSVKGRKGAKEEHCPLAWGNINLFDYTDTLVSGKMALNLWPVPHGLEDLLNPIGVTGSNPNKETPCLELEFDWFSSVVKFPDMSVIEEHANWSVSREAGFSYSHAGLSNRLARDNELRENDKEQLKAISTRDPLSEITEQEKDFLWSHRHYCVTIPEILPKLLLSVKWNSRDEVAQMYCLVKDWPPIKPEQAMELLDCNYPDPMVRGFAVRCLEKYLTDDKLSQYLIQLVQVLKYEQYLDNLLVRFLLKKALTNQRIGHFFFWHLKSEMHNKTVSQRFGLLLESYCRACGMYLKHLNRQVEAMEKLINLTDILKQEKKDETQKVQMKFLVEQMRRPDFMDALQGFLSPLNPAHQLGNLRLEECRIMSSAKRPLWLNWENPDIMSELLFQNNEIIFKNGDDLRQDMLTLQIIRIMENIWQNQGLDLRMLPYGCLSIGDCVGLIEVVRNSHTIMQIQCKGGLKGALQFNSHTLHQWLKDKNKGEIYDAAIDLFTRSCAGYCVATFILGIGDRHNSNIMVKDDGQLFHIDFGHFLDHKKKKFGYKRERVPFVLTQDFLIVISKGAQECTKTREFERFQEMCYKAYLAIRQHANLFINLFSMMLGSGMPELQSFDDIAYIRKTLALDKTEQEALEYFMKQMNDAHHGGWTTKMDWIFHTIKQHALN
Sequence of PI3Kalpha (P27986 whole entry partner, species assumed): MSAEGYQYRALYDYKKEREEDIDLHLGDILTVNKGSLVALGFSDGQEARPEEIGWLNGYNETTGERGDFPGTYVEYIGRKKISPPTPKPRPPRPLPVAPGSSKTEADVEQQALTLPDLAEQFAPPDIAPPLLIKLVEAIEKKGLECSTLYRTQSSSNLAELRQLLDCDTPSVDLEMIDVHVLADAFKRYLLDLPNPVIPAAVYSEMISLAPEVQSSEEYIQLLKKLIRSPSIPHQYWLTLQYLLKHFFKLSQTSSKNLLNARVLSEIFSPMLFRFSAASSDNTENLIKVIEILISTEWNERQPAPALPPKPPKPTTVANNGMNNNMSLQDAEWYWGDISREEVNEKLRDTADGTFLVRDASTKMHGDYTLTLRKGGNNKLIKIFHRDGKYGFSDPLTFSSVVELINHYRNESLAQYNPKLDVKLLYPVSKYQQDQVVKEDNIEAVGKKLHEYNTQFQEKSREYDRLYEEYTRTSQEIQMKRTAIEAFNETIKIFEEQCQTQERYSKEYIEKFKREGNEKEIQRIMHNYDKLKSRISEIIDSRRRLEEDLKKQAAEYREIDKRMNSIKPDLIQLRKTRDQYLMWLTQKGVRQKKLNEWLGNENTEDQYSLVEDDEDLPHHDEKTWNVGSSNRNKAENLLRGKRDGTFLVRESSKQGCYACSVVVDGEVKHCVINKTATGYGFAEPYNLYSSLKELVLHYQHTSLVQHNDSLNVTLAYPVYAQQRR
Sequence of PI3Kgamma isoform (P48736 whole entry, the tested form may be a part, canonical isoform): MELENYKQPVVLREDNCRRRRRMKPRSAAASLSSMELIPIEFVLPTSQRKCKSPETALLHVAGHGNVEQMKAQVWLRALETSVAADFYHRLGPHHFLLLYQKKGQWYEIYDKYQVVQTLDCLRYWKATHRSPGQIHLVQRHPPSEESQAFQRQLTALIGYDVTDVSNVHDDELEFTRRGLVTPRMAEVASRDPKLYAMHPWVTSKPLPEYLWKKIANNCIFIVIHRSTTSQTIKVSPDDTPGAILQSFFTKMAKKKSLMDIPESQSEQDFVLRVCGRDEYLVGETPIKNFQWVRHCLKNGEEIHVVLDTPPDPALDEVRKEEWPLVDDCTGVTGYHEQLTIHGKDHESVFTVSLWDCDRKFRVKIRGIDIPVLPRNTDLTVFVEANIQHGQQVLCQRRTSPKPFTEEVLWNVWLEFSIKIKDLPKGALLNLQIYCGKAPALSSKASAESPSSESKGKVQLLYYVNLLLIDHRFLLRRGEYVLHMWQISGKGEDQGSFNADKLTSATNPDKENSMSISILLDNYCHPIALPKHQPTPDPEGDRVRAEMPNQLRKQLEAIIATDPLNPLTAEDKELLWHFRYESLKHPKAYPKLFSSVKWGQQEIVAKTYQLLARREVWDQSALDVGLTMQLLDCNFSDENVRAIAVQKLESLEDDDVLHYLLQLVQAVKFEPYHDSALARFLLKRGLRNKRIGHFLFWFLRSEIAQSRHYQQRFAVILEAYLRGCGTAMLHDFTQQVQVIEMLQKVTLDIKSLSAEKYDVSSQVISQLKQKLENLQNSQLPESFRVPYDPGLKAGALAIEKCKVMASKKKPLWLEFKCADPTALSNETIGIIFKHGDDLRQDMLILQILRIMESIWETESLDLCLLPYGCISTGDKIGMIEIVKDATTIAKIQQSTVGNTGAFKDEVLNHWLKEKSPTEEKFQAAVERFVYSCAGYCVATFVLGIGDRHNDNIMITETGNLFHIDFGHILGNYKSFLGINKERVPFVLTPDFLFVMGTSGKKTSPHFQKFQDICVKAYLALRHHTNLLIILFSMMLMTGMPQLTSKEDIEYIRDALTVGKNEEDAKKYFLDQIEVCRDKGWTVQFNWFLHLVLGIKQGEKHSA

For `FC(F)c1nc2ccccc2n1-c1nc(N2CCOCC2)nc(N2CCOCC2)n1` [Compound 4, 4,4′-(6-(2-(Difluoromethyl)-1H-benzo[d]imidazol-1-yl)-1,3,5-triazine-2,4-diyl)dimorpholine, reference compound], the remaining activity at 0.2 µM on PI3Kalpha stood at 13%. Further, the activity at 1 µM with melanoma cell line A2058 (setting [1]) amounted to 3.63 ± 1.1%; in the test with melanoma cell line A2058 (setting [2]) it was 22.5 ± 0.13%; with TSC2-/- MEFs cell line, 37.9 ± 4.21%.
Regarding `CN1CCN(c2nc(N3CCOCC3)nc(-n3c(C(F)F)nc4ccccc43)n2)CC1` [Compound 5, 4-(4-(2-(Difluoromethyl)-1H-benzo[d]imidazol-1-yl)-6-(4-methylpiperazin-1-yl)-1,3,5-triazin-2-yl)morpholine], on PI3Kalpha, the “activity (in words)” value was “substantially more active than compound 17”, the remaining activity at 0.2 µM stood at 33% and the “inhibitor activity against PI3K (in words)” value is given as “Increasing of inhibitor activity against PI3K”. The activity at 1 µM in the test with melanoma cell line A2058 (setting [1]) is 4.13 ± 0.37%. In addition, the activity at 1 µM in the test with melanoma cell line A2058 (setting [2]) turned out to be 18.5 ± 1.7%. Moreover, in the test on TSC2-/- MEFs cell line, the activity at 1 µM worked out at 67.3 ± 1.26% and the “selectivity to mTOR (in words)” value was “diminishing of selectivity to mTOR”.
Turning to `CCS(=O)(=O)N1CCN(c2nc(N3CCOCC3)nc(-n3c(C(F)F)nc4ccccc43)n2)CC1` [Compound 7, 4-(4-(2-(Difluoromethyl)-1H-benzo[d]imidazol-1-yl)-6-(4-(ethylsulfonyl)piperazin-1-yl)-1,3,5-triazin-2-yl)morpholine], at PI3Kalpha, the remaining activity at 0.2 µM is 35% and the “inhibitor activity against PI3K (in words)” value is reported as “slightly decreased”. Moreover, the activity at 1 µM with melanoma cell line A2058 (setting [1]) came out at 30.7 ± 1.08%. Moreover, the activity at 1 µM with melanoma cell line A2058 (setting [2]) is 56.7 ± 10.6%. In the test on TSC2-/- MEFs cell line, the activity at 1 µM is 104 ± 4.27% and the “selectivity to mTOR (in words)” value was “notable reduced”.
Take `C=CC(=O)N1CCN(c2nc(N3CCOCC3)nc(-n3c(C(F)F)nc4ccccc43)n2)CC1` [Compound 8, 1-(4-(4-(2-(Difluoromethyl)-1H-benzo[d]imidazol-1-yl)-6-morpholino-1,3,5-triazin-2-yl)piperazin-1-yl)prop-2-en-1-one]: the remaining activity at 0.2 µM at PI3Kalpha turned out to be 8%. Moreover, the values for the activity at 1 µM with melanoma cell line A2058 (setting [1]), with melanoma cell line A2058 (setting [2]) and in the test with TSC2-/- MEFs cell line were 13 ± 0.01%, 23 ± 4.22% and 95 ± 7.44%, respectively.
For the molecule `NCCN1CCN(c2nc(N3CCOCC3)nc(-n3c(C(F)F)nc4ccccc43)n2)CC1` [Compound 9, 2-(4-(4-(2-(Difluoromethyl)-1H-benzo[d]imidazol-1-yl)-6-morpholino-1,3,5-triazin-2-yl)piperazin-1-yl)ethanamine], the remaining activity at 0.2 µM at PI3Kalpha came out at 50%. The activity at 1 µM in the test with melanoma cell line A2058 (setting [1]) came out at 16.5 ± 0.24%; with melanoma cell line A2058 (setting [2]), 30.9 ± 4.06%; with TSC2-/- MEFs cell line, 89.9 ± 9.5%.
Regarding `C=CC(=O)NCCN1CCN(c2nc(N3CCOCC3)nc(-n3c(C(F)F)nc4ccccc43)n2)CC1` [Compound 10, N-(2-(4-(4-(2-(Difluoromethyl)-1H-benzo[d]imidazol-1-yl)-6-morpholino-1,3,5-triazin-2-yl)piperazin-1-yl)ethyl)acrylamide], the remaining activity at 0.2 µM on PI3Kalpha was found to be 20%. Besides, the activity at 1 µM was 3.99 ± 1.18% in the test with melanoma cell line A2058 (setting [1]), 12.7 ± 1.69% in the test on melanoma cell line A2058 (setting [2]) and 74.5 ± 5.9% in the test with TSC2-/- MEFs cell line.
`CCCCCCN1CCN(c2nc(N3CCOCC3)nc(-n3c(C(F)F)nc4ccccc43)n2)CC1` [Compound 11, 4-(4-(2-(Difluoromethyl)-1H-benzo[d]imidazol-1-yl)-6-(4-hexylpiperazin-1-yl)-1,3,5-triazin-2-yl)morpholine]: at PI3Kalpha, the remaining activity at 0.2 µM worked out at 45%. Also, the figures for the activity at 1 µM with melanoma cell line A2058 (setting [1]), with melanoma cell line A2058 (setting [2]) and in the test on TSC2-/- MEFs cell line were 85.2 ± 3.71%, 74 ± 10.3% and 85.7 ± 5.71%, respectively.
`CCOCCN1CCN(c2nc(N3CCOCC3)nc(-n3c(C(F)F)nc4ccccc43)n2)CC1` [Compound 12, 4-(4-(2-(Difluoromethyl)-1H-benzo[d]imidazol-1-yl)-6-(4-(2-ethoxyethyl)piperazin-1-yl)-1,3,5-triazin-2-yl)morpholine]: the remaining activity at 0.2 µM on PI3Kalpha turned out to be 42%. Further, the figures for the activity at 1 µM with melanoma cell line A2058 (setting [1]), in the test with melanoma cell line A2058 (setting [2]) and with TSC2-/- MEFs cell line were 15.9 ± 2.46%, 24.4 ± 4.34% and 77.1 ± 4.62%, respectively.
Regarding `O=C(CCCCCNC(=O)COc1ccc(/C=C/C2=[N+]3C(=Cc4ccc(-c5cccs5)n4[B-]3(F)F)C=C2)cc1)NCCN1CCN(c2nc(N3CCOCC3)nc(-n3c(C(F)F)nc4ccccc43)n2)CC1` [Compound 13, (E)-3-(4-(2-((6-((2-(4-(4-(2-(Difluoromethyl)-1H-benzo[d]imidazol-1-yl)-6-morpholino-1,3,5-triazin-2-yl)piperazin-1-yl)ethyl)amino)-6-oxohexyl)amino)-2-oxoethoxy)styryl)-5,5-difluoro-7-(thiophen-2-yl)-5H-dipyrrolo[1,2-c:2′,1′-f][1,3,2]diazaborinin-4-ium-5-uide], the “activity (in words)” value at PI3Kalpha was “active”. For the same molecule, the remaining activity at 0.2 µM at PI3Kalpha turned out to be 13%. Further, the activity at 1 µM was 47.5 ± 5.48% in the test with melanoma cell line A2058 (setting [1]), 57.3 ± 6.86% in the test with melanoma cell line A2058 (setting [2]) and 95.5 ± 9.81% in the test on TSC2-/- MEFs cell line. Further, the “binding to PI3Kgamma isoform (in words)” value at PI3Kgamma isoform was “binds to the PI3Kgamma isoform”.
As for `CN1CCN(c2nc(N3CCOCC3)nc(-n3cnc4ccccc43)n2)CC1` [Compound 17, reference compound], the remaining activity at 0.2 µM at PI3Kalpha worked out at 83%. In addition, the activity at 1 µM with melanoma cell line A2058 (setting [1]) stood at 122 ± 2.58%; in the test with melanoma cell line A2058 (setting [2]) it was 83 ± 3.31%; in the test on TSC2-/- MEFs cell line it was 123 ± 5.78%.
